Assay results published in publication PMC4203399 (Journal of Medicinal Chemistry, 2014).

Columns and labels:
Huh-5-2 cells = test: MTS assay of antimetabolic effect, Huh-5-2; type: cell-based; conditions: data not shown
recombinant NS5BCΔ21 1b = recombinant NS5BCΔ21 1b (Hepatitis C virus genotype 1b, UniProt O92972); test: NS5B primer dependent elongation; type: biochemical; conditions: for inhibition at 50 µM: read-out: inhibition of NS5B RdRp activity, screen at 50 μM
[1] = tested on: genotype 1b HCV subgenomic replicon in Huh-5-2 cells; type: cell-based, hepatitis C virus

SMILES | antimetabolic effect after dose–response curve analysis (Huh-5-2 cells) | inhibition at 50 µM (recombinant NS5BCΔ21 1b) | assessment of anti-HCV activity in the replicon assay (in words) [1] | anti-NS5B activity (in words) (recombinant NS5BCΔ21 1b)
Cc1ccccc1-n1nc(C(=O)Nc2ccc(NS(C)(=O)=O)cc2)c2c1-c1ccccc1S(=O)(=O)N2C [2i, 4-Methyl-1-(2-methylphenyl)-N-{4-[(methylsulfonyl)amino]phenyl}-1,4-dihydropyrazolo[4,3-c][1,2]benzothiazine-3-carboxamide 5,5-Dioxide] | displayed antimetabolic effect |  |  | 
CN1c2c(C(=O)Nc3ccc(NS(C)(=O)=O)cc3)nn(-c3ccc(Cl)c(C(F)(F)F)c3)c2-c2ccccc2S1(=O)=O [2s, 1-[4-Chloro-3-(trifluoromethyl)phenyl]-4-methyl-N-{4-[(methylsulfonyl)amino]phenyl}-1,4-dihydropyrazolo[4,3-c][1,2]benzothiazine-3-carboxamide 5,5-Dioxide] | displayed antimetabolic effect | < 50% |  | 
CN1c2c(C(=O)Nc3ccc(NS(C)(=O)=O)cc3)nn(-c3ccc(Br)cc3)c2-c2ccccc2S1(=O)=O [2e, 1-(4-Bromophenyl)-4-methyl-N-{4-[(methylsulfonyl)amino]phenyl}-1,4-dihydropyrazolo[4,3-c][1,2]benzothiazine-3-carboxamide 5,5-Dioxide] |  |  | selective anti-HCV activity without any antimetabolic effect | 
CN1c2c(C(=O)Nc3ccc(NS(C)(=O)=O)cc3)nn(-c3ccccc3C(F)(F)F)c2-c2ccccc2S1(=O)=O [2n, 4-Methyl-N-{4-[(methylsulfonyl)amino]phenyl}-1-[2-(trifluoromethyl)phenyl]-1,4-dihydropyrazolo[4,3-c][1,2]benzothiazine-3-carboxamide 5,5-Dioxide] |  | < 50% |  | 
Cc1ccc(-n2nc(C(=O)Nc3ccc(NS(C)(=O)=O)cc3)c3c2-c2ccccc2S(=O)(=O)N3C)cc1Cl [2r, 1-(3-Chloro-4-methylphenyl)-4-methyl-N-{4-[(methylsulfonyl)amino]phenyl}-1,4-dihydropyrazolo[4,3-c][1,2]benzothiazine-3-carboxamide 5,5-Dioxide] | displayed antimetabolic effect | ≥ 50% |  | 
CN1c2c(C(=O)Nc3ccc(NS(C)(=O)=O)cc3)nn(-c3ccc(F)c(F)c3)c2-c2ccccc2S1(=O)=O [2o, 1-(3,4-Difluorophenyl)-4-methyl-N-{4-[(methylsulfonyl)amino]phenyl}-1,4-dihydropyrazolo[4,3-c][1,2]benzothiazine-3-carboxamide 5,5-Dioxide] |  | ≥ 50% | false positives | less active than compound 1
COc1cccc(-n2nc(C(=O)Nc3ccc(NS(C)(=O)=O)cc3)c3c2-c2ccccc2S(=O)(=O)N3C)c1 [2j, 1-(3-Methoxyphenyl)-4-methyl-N-{4-[(methylsulfonyl)amino]phenyl}-1,4-dihydropyrazolo[4,3-c][1,2]benzothiazine-3-carboxamide 5,5-Dioxide] |  | < 50% |  | inactive
CN1c2c(C(=O)Nc3ccc(NS(C)(=O)=O)cc3)nn(-c3ccccc3Br)c2-c2ccccc2S1(=O)=O [2f, 1-(2-Bromophenyl)-4-methyl-N-{4-[(methylsulfonyl)amino]phenyl}-1,4-dihydropyrazolo[4,3-c][1,2]benzothiazine-3-carboxamide 5,5-Dioxide] |  |  | false positives | 
CN1c2c(C(=O)Nc3ccc(NS(C)(=O)=O)cc3)nn(-c3cccc(Br)c3)c2-c2ccccc2S1(=O)=O [2d, 1-(3-Bromophenyl)-4-methyl-N-{4-[(methylsulfonyl)amino]phenyl}-1,4-dihydropyrazolo[4,3-c][1,2]benzothiazine-3-carboxamide 5,5-Dioxide] |  |  | selective anti-HCV activity without any antimetabolic effect | 
CN1c2c(C(=O)Nc3ccc(NS(C)(=O)=O)cc3)nn(-c3ccc(C(F)(F)F)cc3)c2-c2ccccc2S1(=O)=O [2m, 4-Methyl-N-{4-[(methylsulfonyl)amino]phenyl}-1-[4-(trifluoromethyl)phenyl]-1,4-dihydropyrazolo[4,3-c][1,2]benzothiazine-3-carboxamide 5,5-Dioxide] | displayed antimetabolic effect | ≥ 50% |  | 
Cc1ccc(-n2nc(C(=O)Nc3ccc(NS(C)(=O)=O)cc3)c3c2-c2ccccc2S(=O)(=O)N3C)cc1C [2q, 1-(3,4-Dimethylphenyl)-4-methyl-N-{4-[(methylsulfonyl)amino]phenyl}-1,4-dihydropyrazolo[4,3-c][1,2]benzothiazine-3-carboxamide 5,5-Dioxide] |  | < 50% |  | 
CN1c2c(C(=O)Nc3ccc(NS(C)(=O)=O)cc3)nn(-c3ccccc3Cl)c2-c2ccccc2S1(=O)=O [2c, 1-(2-Chlorophenyl)-4-methyl-N-{4-[(methylsulfonyl)amino]phenyl}-1,4-dihydropyrazolo[4,3-c][1,2]benzothiazine-3-carboxamide 5,5-Dioxide] | displayed antimetabolic effect |  |  | 
CN1c2c(C(=O)Nc3ccc(NS(C)(=O)=O)cc3)n[nH]c2-c2ccccc2S1(=O)=O [2u, 4-Methyl-N-{4-[(Methylsulfonyl)amino]phenyl}-1,4-dihydropyrazolo[4,3-c][1,2]benzothiazine-3-carboxamide 5,5-Dioxide] |  | < 50% |  | totally inactive
CN1c2c(C(=O)Nc3ccccc3)nn(-c3cccc(F)c3)c2-c2ccccc2S1(=O)=O [compound 3, 1-(3-Fluorophenyl)-4-methyl-N-phenyl-1,4-dihydropyrazolo[4,3-c][1,2]benzothiazine-3-carboxamide 5,5-Dioxide] |  |  | false positives | inactive
CN1c2c(NC(=O)c3ccc(NS(C)(=O)=O)cc3)nn(-c3cccc(F)c3)c2-c2ccccc2S1(=O)=O [compound 5, N-[1-(3-Fluorophenyl)-4-methyl-5,5-dioxido-1,4-dihydropyrazolo[4,3-c][1,2]benzothiazin-3-yl]-4-(methylsulfonyl)aminobenzamide] |  |  |  | inactive
CN1c2c(C(=O)Nc3ccc(NS(C)(=O)=O)cc3)nn(-c3cccc(C(F)(F)F)c3)c2-c2ccccc2S1(=O)=O [2l, 4-Methyl-N-{4-[(methylsulfonyl)amino]phenyl}-1-[3-(trifluoromethyl)phenyl]-1,4-dihydropyrazolo[4,3-c][1,2]benzothiazine-3-carboxamide 5,5-Dioxide] |  | ≥ 50% | selective anti-HCV activity without any antimetabolic effect | 
Cc1cccc(-n2nc(C(=O)Nc3ccc(NS(C)(=O)=O)cc3)c3c2-c2ccccc2S(=O)(=O)N3C)c1 [2g, 4-Methyl-1-(3-methylphenyl)-N-{4-[(methylsulfonyl)amino]phenyl}-1,4-dihydropyrazolo[4,3-c][1,2]benzothiazine-3-carboxamide 5,5-Dioxide] |  |  | selective anti-HCV activity without any antimetabolic effect | 
CN1c2c(C(=O)Nc3ccc(NS(C)(=O)=O)cc3)nn(-c3ccc(Cl)c(Cl)c3)c2-c2ccccc2S1(=O)=O [2p, 1-(3,4-Dichlorophenyl)-4-methyl-N-{4-[(methylsulfonyl)amino]phenyl}-1,4-dihydropyrazolo[4,3-c][1,2]benzothiazine-3-carboxamide 5,5-Dioxide] | displayed antimetabolic effect | ≥ 50% |  | 
